Molecules are shown by their SMILES. Calls of active or inactive are those of the source. The rule behind the calls is not given here.

The IC50 is the midpoint of a concentration-inhibition curve. A word on the EC50: it is the concentration giving half of the maximal effect.

For experiment [1], the system named is FLO-1. The experiment can be described thus: Antiproliferative activity against human FLO-1 cells assessed as reduction in cell viability at 0.003 to 30 uM measured after 5 days by PrestoBlue reagent based fluorescence analysis. Conditions: dose 0.003-30 µM, time 5.0 day. The class given is functional.
Experiment [2] deals with OE33. The experiment can be described thus: Antiproliferative activity against human OE33 cells assessed as reduction in cell viability at 0.003 to 30 uM measured after 5 days by PrestoBlue reagent based fluorescence analysis. The class given is functional. Conditions: dose 0.003-30 µM, time 5.0 day.
For experiment [3], the target named is T1, Aurora kinase A (Homo sapiens, UniProt O14965).
T1 sequence (O14965 whole entry): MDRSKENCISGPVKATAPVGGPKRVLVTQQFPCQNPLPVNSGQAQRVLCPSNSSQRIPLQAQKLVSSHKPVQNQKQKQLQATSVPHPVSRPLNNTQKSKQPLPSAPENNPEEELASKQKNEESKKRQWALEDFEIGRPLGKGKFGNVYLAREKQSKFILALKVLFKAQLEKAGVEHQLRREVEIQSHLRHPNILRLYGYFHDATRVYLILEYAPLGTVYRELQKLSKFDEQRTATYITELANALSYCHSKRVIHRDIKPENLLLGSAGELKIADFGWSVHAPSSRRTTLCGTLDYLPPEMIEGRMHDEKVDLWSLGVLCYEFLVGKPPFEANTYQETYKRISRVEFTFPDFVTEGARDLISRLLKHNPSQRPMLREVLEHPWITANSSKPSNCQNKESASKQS
Put plainly: Inhibition of recombinant AuroraA (unknown origin).

Experiment [4] can be described thus: cells. The note with it: Homo sapiens, FLO-1, 120 h.
Description: Antiproliferative activity against human FLO-1 cells assessed as reduction in cell viability measured after 5 days by PrestoBlue reagent based fluorescence analysis
Experiment [5] deals with OE33. Put plainly: cells. Conditions: Homo sapiens, OE33, 120 h.
Description: Antiproliferative activity against human OE33 cells assessed as reduction in cell viability measured after 5 days by PrestoBlue reagent based fluorescence analysis
Experiment [6] can be described thus: cells. The note with it: Homo sapiens, MFD-1, 120 h.
Description: Antiproliferative activity against human MFD-1 cells assessed as reduction in cell viability measured after 5 days by PrestoBlue reagent based fluorescence analysis
The test system of experiment [7] is CP-A. The experiment can be described thus: Antiproliferative activity against human CP-A cells assessed as reduction in cell viability at 0.003 to 30 uM measured after 5 days by PrestoBlue reagent based fluorescence analysis. In kind it is functional. Conditions: dose 0.003-30 µM, time 5.0 day.
For experiment [8], the system named is JH-EsoAd1. Put plainly: Antiproliferative activity against human JH-EsoAd1 cells assessed as reduction in cell viability at 0.003 to 30 uM measured after 5 days by PrestoBlue reagent based fluorescence analysis. The class given is functional. The note with it: dose 0.003-30 µM, time 5.0 day.
Experiment [9] deals with EPC-2. Put plainly: Antiproliferative activity against human EPC-2 cells assessed as reduction in cell viability at 0.003 to 30 uM measured after 5 days by PrestoBlue reagent based fluorescence analysis. The class given is functional. The note with it: dose 0.003-30 µM, time 5.0 day.
Experiment [10] has as its system SKGT4. The experiment can be described thus: Antiproliferative activity against human SKGT4 cells assessed as reduction in cell viability at 0.003 to 30 uM measured after 5 days by PrestoBlue reagent based fluorescence analysis. The class given is functional. Conditions: dose 0.003-30 µM, time 5.0 day.
Experiment [11] is described as follows: cells. Conditions: Homo sapiens, SKGT4, 120 h.
Description: Antiproliferative activity against human SKGT4 cells assessed as reduction in cell viability measured after 5 days by PrestoBlue reagent based fluorescence analysis
Experiment [12] deals with MFD-1. Put plainly: Antiproliferative activity against human MFD-1 cells assessed as reduction in cell viability at 0.003 to 30 uM measured after 5 days by PrestoBlue reagent based fluorescence analysis. In kind it is functional. Conditions: dose 0.003-30 µM, time 5.0 day.
Experiment [13] relates to OACp4C. The experiment can be described thus: Antiproliferative activity against human OACp4C cells assessed as reduction in cell viability at 0.003 to 30 uM measured after 5 days by PrestoBlue reagent based fluorescence analysis. Conditions: dose 0.003-30 µM, time 5.0 day. In kind it is functional.

In the case of `CNc1ncc2c(/C=C/C(=O)N3CCCC(N(C)C)C3)nn(CC3CCCC3)c2n1` (stereo not given), the outcome in [1] was Active.
Take `CCOC(Cn1nc(/C=C/C(=O)N2CCC(OC)CC2)c2cnc(NC)nc21)OCC`: the result in experiment [1] and in experiment [2] was inactive.
With `CC1CCN(C(=O)/C=C/c2nn(CC3CCCC3)c3ncnc(N)c23)CC1`, the outcome in experiment [1] and in [2] was inactive.
Consider `CNc1ncc2c(/C=C/C(=O)N3CCC(OC)CC3)nn(Cc3cccc(C(F)(F)F)c3)c2n1`, for which the IC50 in [3] came out at 1450 nM.
For the compound `CNc1ncc2c(/C=C/C(=O)N3CCC(c4ccccc4)CC3)nn(CC3CCCC3)c2n1`, the outcome in [1] was Active.
As to `CNc1ncc2c(/C=C/C(=O)N3CCC(OC)CC3)nn(Cc3cccc(C)c3)c2n1`, the outcome in [1] and in [2] was Active. Moreover, the EC50 is 2500 nM in experiment [4] and 1800 nM in [5].
Take `CNc1ncc2c(/C=C/C(=O)N3CCC(OC)CC3)nn(CC3CCCO3)c2n1` (stereo not given): the outcome in experiment [1] and in experiment [2] was inactive.
Regarding `CNc1ncc2c(/C=C/C(=O)N3CCC(OC)CC3)nn(Cc3ccccc3OC)c2n1`, the outcome in experiment [1] and in [2] was inactive.
On to `CNc1ncc2c(/C=C/C(=O)N3CCC(OC)CC3)nn(CC3CCCC3)c2n1`, for which the result in experiment [1] was Active. The half-maximal effective concentration (EC50) in experiment [4] and in [5] was less than 9000 nM in each case.
With `CNc1ncc2c(/C=C/C(=O)N3CCC(OC)CC3)nn(CC(OC)OC)c2n1`, the result in experiment [1] and in experiment [2] was inactive.
For the compound `Nc1ncnc2c1c(/C=C/C(=O)N1CCCC1)nn2CC1CCCC1`, the EC50 in experiment [4] and in experiment [5] was roughly 30000 nM in each case.
On to `CNc1ncc2c(/C=C/C(=O)N3CCC(COC)CC3)nn(Cc3cccc(C)c3)c2n1`, for which the outcome in experiment [1] and in [2] was inactive.
As for `COC(=O)/C=C/c1nn(CC2CCCC2)c2ncnc(N)c12`, the outcome in experiment [1] and in experiment [2] was inactive.
Turning to `CNc1ncc2c(/C=C/C(=O)N3CCC(OC)CC3)nn(CCC(C)C)c2n1`, the outcome in experiment [1] and in experiment [2] was inactive.
Regarding `CNc1ncc2c(/C=C/C(=O)N3CCCC3)nn(CC3CCCC3)c2n1`, in [1], the outcome was Active.
`CNc1ncc2c(/C=C/C(=O)N3CCC(OC)CC3)nn(CC(C)(C)C)c2n1`: the result in [1] and in experiment [2] was inactive.
With `CNc1ncc2c(/C=C/C(=O)N3CCC(OC)CC3)nn(CC3CCCCC3)c2n1`, the result in [1] and in [2] was Active.
For the compound `CNc1ncc2c(/C=C/C(=O)O)nn(CC3CCCC3)c2n1`, the result in experiment [1] and in [2] was inactive.
For `CNc1ncc2c(/C=C/C(=O)N3CCC(OC)CC3)nn(Cc3ccc(OC)cc3)c2n1`, the Activity result in experiment [1] and in [2] was “Active; Partial Restoration Of Antiproliferative Activity Observed” throughout.
With `Nc1ncnc2c1c(/C=C/C(=O)N1CCOCC1)nn2CC1CCCC1`, the result in [1] and in experiment [2] was inactive.
Turning to `CNc1ncc2c(/C=C/C(=O)N3CCC(C)CC3)nn(CC3CCCC3)c2n1`, in [1], the result was Active.
Turning to `Nc1ncnc2c1c(/C=C/C(=O)N1CCC(c3ccccc3)CC1)nn2CC1CCCC1`, the EC50 in experiment [4] and in [5] was roughly 30000 nM each time.
In the case of `CNc1ncc2c(/C=C/C(=O)N3CCCCC3)nn(CC3CCCC3)c2n1`, in experiment [1], the outcome was Active.
Take `CNc1ncc2c(/C=C/C(=O)N3CCOCC3)nn(CC3CCCC3)c2n1`: the result in experiment [1] was Active.
With `Nc1ncnc2c1c(/C=C/C(=O)N1CCC(O)CC1)nn2CC1CCCC1`, the outcome in experiment [1] and in [2] was inactive.
Regarding `CNc1ncc2c(/C=C/C(=O)N3CCC(N(C)C)CC3)nn(CC3CCCC3)c2n1`, the result in experiment [1] was Active.
With `CNc1ncc2c(/C=C/C(=O)N3CCC4(CC3)OCCO4)nn(Cc3cccc(C)c3)c2n1`, the outcome in experiment [1] and in [2] was Active. Besides, the concentration for a half-maximal effect (EC50) in [4] came out at 1240 nM; in experiment [5] it was 830 nM.
Take `CNc1ncc2c(/C=C/C(=O)N3CCC(OC)CC3)nn(Cc3ccccc3C(F)(F)F)c2n1`: the outcome in experiment [1] and in experiment [2] was inactive.
Take `CNc1ncc2c(/C=C/C(=O)N3CCC(OC)CC3)nn(Cc3ccc(C(F)(F)F)cc3)c2n1`: the Activity result in experiment [1] and in experiment [2] was “Active; Partial Restoration Of Antiproliferative Activity Observed” each time.
For `CNc1ncc2c(/C=C/C(=O)N3CCC(OC)CC3)nn(Cc3ccc(C)cc3)c2n1`, the Activity result in experiment [1] and in [2] was “Active; Partial Restoration Of Antiproliferative Activity Observed” in each case.
Consider `CNc1ncc2c(/C=C/C(=O)N3CCC(OC)CC3)nn(C(C)C)c2n1`, for which the outcome in experiment [1] and in experiment [2] was inactive.
On to `Nc1ncnc2c1c(/C=C/C(=O)N1CCCCC1)nn2CC1CCCC1`, for which the outcome in experiment [1] and in [2] was inactive.
As to `CNc1ncc2c(/C=C/C(=O)N3CCC(OC)CC3)nn(Cc3ccccc3)c2n1`, the outcome in [1] and in experiment [2] was Active.
On to `CNc1ncc2c(/C=C/C(=O)N3CCC(OC)CC3)nn(Cc3ccccc3C)c2n1`, for which the outcome in experiment [1] and in [2] was inactive.
For `CNc1ncc2c(/C=C/C(=O)N3CCC(CCO)CC3)nn(CC3CCCC3)c2n1`, the outcome in experiment [1] was Active.
For the compound `CNc1ncc2c(/C=C/C(=O)N3CCC4(CC3)OCCO4)nn(Cc3cccc(C(F)(F)F)c3)c2n1`, the EC50 in [4] is 700 nM; in experiment [6] it was 920 nM; in experiment [11], 2900 nM; in experiment [5], 560 nM. Further, the result in [7], in experiment [8], in [9], in experiment [10], in [12] and in experiment [13] was Active.
As for `CCOC1CCN(C(=O)/C=C/c2nn(Cc3cccc(C)c3)c3nc(NC)ncc23)CC1`, the outcome in experiment [1] and in [2] was inactive.
With `CNc1ncc2c(/C=C/C(=O)N3CCC(O)CC3)nn(CC3CCCC3)c2n1`, the result in experiment [1] was Active.
As for `CNc1ncc2c(/C=C/C(=O)N3CCC(OC)CC3)nn(CC3OCCO3)c2n1`, the result in experiment [1] and in [2] was inactive.
For `CNc1ncc2c(/C=C/C(=O)N3CCCC(OC)C3)nn(Cc3cccc(C)c3)c2n1` (stereo not given), the outcome in [1] and in experiment [2] was inactive.
As for `CNc1ncc2c(/C=C/C(=O)N3CCC(OC)CC3)nn(Cc3cccc(OC)c3)c2n1`, the result in [1] and in experiment [2] was Active.
As for `COC1CCN(C(=O)/C=C/c2nn(CC3CCCC3)c3ncnc(N)c23)CC1`, the result in [1] and in [2] was inactive.
`CN(C)C1CCCN(C(=O)/C=C/c2nn(CC3CCCC3)c3ncnc(N)c23)C1` (stereo not given): the result in experiment [1] and in experiment [2] was inactive.
Regarding `CN(C)C1CCN(C(=O)/C=C/c2nn(CC3CCCC3)c3ncnc(N)c23)CC1`, the outcome in experiment [1] and in experiment [2] was inactive.
For `Nc1ncnc2c1c(/C=C/C(=O)O)nn2CC1CCCC1`, the outcome in experiment [1] and in experiment [2] was inactive.
Turning to `Nc1ncnc2c1c(/C=C/C(=O)N1CCC(CCO)CC1)nn2CC1CCCC1`, the result in [1] and in experiment [2] was inactive.

The values above are taken from ChEMBL document CHEMBL6134771, “Ligand-centred phenotype-driven development of potent kinase inhibitors against oesophageal cancer” (RSC Med Chem, 2025).
